Results from patent US20230129258A1, “HETEROTANDEM BICYCLIC PEPTIDE COMPLEXES” (BicycleTx Limited, priority 2019, published 2023).
Where two headings read alike, the source gives them in different places.

Molecular target: CD137 (Homo sapiens, UniProt Q07011)
Assay: CD137 reporter assay (Promega CD137 luciferase reporter, Jurkat cells) in co-culture with Nectin-4-expressing tumor cells
Assay type: cell-based
Design: host or cells: Jurkat reporter cells
[1] = co-culture with HT1376, Table 2A

Sequence of CD137 (Q07011 24-255): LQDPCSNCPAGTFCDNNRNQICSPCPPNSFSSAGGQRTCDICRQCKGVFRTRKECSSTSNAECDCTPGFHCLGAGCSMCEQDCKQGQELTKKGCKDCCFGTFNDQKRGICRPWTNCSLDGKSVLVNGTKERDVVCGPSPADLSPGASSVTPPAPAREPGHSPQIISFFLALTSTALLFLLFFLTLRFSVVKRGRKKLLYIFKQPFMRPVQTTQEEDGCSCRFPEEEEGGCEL

CCCC[C@@H]1NC(=O)[C@H](Cc2ccc(O)cc2)NC(=O)[C@@H]2CCCN2C(=O)[C@H](CC(=O)O)NC(=O)[C@H](C)NC(=O)[C@H](Cc2ccccc2)NC(=O)[C@@H]2CSCCC(=O)N3CN(CN(C3)C(=O)CCSC[C@@H](C(=O)N[C@@H](C)C(N)=O)NC1=O)C(=O)CCSC[C@H](NC(C)=O)C(=O)N[C@@H](CC(C)(C)C)C(=O)N1CCC[C@H]1C(=O)N[C@@H](CCC(=O)O)C(=O)N[C@H](CCCCNC(=O)CCc1cn(CCOCCOCCOCCN(CCOCCOCCOCCC(=O)N[C@H]3CSCCC(=O)N4CN5CN(C4)C(=O)CCSC[C@H](NC(=O)[C@@H](CC(=O)O)NC(=O)[C@H](Cc4cccc6ccccc46)NC(=O)[C@@H]4CCCN4C3=O)C(=O)N[C@@H](CCSC)C(=O)N[C@@H](CCCCNC(=N)N)C(=O)N[C@@H](CC(=O)O)C(=O)N[C@@H](Cc3c[nH]c4ccccc34)C(=O)N[C@@H](CO)C(=O)N[C@@H]([C@@H](C)O)C(=O)N3CCC[C@H]3C(=O)N3C[C@H](O)C[C@H]3C(=O)N[C@@H](Cc3c[nH]c4ccccc34)C(=O)N[C@H](C(N)=O)CSCCC5=O)CCOCCOCCOCCn3cc(CCC(=O)NCCCC[C@H]4NC(=O)[C@H](CCC(=O)O)NC(=O)[C@@H]5CCCN5C(=O)[C@H](CC(C)(C)C)NC(=O)[C@@H](NC(C)=O)CSCCC(=O)N5CN6CN(C5)C(=O)CCSC[C@H](NC(=O)[C@H](Cc5ccc(O)cc5)NC(=O)[C@@H]5CCCN5C4=O)C(=O)N[C@@H](Cc4ccccc4)C(=O)N[C@@H](C)C(=O)N[C@@H](CC(=O)O)C(=O)N4CCC[C@H]4C(=O)N[C@@H](Cc4ccc(O)cc4)C(=O)N[C@@H](CCCC)C(=O)N[C@H](C(=O)N[C@@H](CCCCNC(=O)c4ccc(-c5c7ccc(=N)c(S(=O)(=O)O)c-7oc7c(S(=O)(=O)O)c(N)ccc57)c(C(=O)O)c4)C(N)=O)CSCCC6=O)nn3)nn1)C(=O)N1CCC[C@H]1C(=O)N[C@@H](Cc1ccc(O)cc1)C(=O)N2 [BCY13583]
Emax [1]: 63 fold induction over background

CCCC[C@@H]1NC(=O)[C@H](Cc2ccc(O)cc2)NC(=O)[C@@H]2CCCN2C(=O)[C@H](CC(=O)O)NC(=O)[C@H](C)NC(=O)[C@H](Cc2ccccc2)NC(=O)[C@@H]2CSCCC(=O)N3CN(CN(C3)C(=O)CCSC[C@@H](C(=O)N[C@@H](C)C(N)=O)NC1=O)C(=O)CCSC[C@H](NC(C)=O)C(=O)N[C@@H](CC(C)(C)C)C(=O)N1CCC[C@H]1C(=O)N[C@@H](CCC(=O)O)C(=O)N[C@H](CCCCNC(=O)CCc1cn(CCOCCOCCOCCOCCOCCOCCOCCOCCOCCOCCNC(=O)CCOCCN(CCOCCC(=O)NCCOCCOCCOCCOCCOCCOCCOCCOCCOCCOCCn3cc(CCC(=O)NCCCC[C@H]4NC(=O)[C@H](CCC(=O)O)NC(=O)[C@@H]5CCCN5C(=O)[C@H](CC(C)(C)C)NC(=O)[C@@H](NC(C)=O)CSCCC(=O)N5CN6CN(C5)C(=O)CCSC[C@H](NC(=O)[C@H](Cc5ccc(O)cc5)NC(=O)[C@@H]5CCCN5C4=O)C(=O)N[C@@H](Cc4ccccc4)C(=O)N[C@@H](C)C(=O)N[C@@H](CC(=O)O)C(=O)N4CCC[C@H]4C(=O)N[C@@H](Cc4ccc(O)cc4)C(=O)N[C@@H](CCCC)C(=O)N[C@H](C(=O)N[C@@H](C)C(N)=O)CSCCC6=O)nn3)CCOCCC(=O)NCCOCCOCCOCCOCCOCCOCCOCCOCCOCCOCCn3cc(CCC(=O)N[C@H]4CSCCC(=O)N5CN6CN(C5)C(=O)CCSC[C@H](NC(=O)[C@@H](CC(=O)O)NC(=O)[C@H](Cc5cccc7ccccc57)NC(=O)[C@@H]5CCCN5C4=O)C(=O)N[C@@H](CCSC)C(=O)N[C@@H](CCCCNC(=N)N)C(=O)N[C@@H](CC(=O)O)C(=O)N[C@@H](Cc4c[nH]c5ccccc45)C(=O)N[C@@H](CO)C(=O)N[C@@H]([C@@H](C)O)C(=O)N4CCC[C@H]4C(=O)N4C[C@H](O)C[C@H]4C(=O)N[C@@H](Cc4c[nH]c5ccccc45)C(=O)N[C@H](C(N)=O)CSCCC6=O)nn3)nn1)C(=O)N1CCC[C@H]1C(=O)N[C@@H](Cc1ccc(O)cc1)C(=O)N2 [BCY11027]
EC50 (EC50 (nM), co-culture with HT1376, Table 2A): 0.18 nM

CCCC[C@@H]1NC(=O)[C@H](Cc2ccc(O)cc2)NC(=O)[C@@H]2CCCN2C(=O)[C@H](CC(=O)O)NC(=O)[C@H](C)NC(=O)[C@H](Cc2ccccc2)NC(=O)[C@@H]2CSCCC(=O)N3CN(CN(C3)C(=O)CCSC[C@@H](C(=O)N[C@@H](C)C(N)=O)NC1=O)C(=O)CCSC[C@H](NC(C)=O)C(=O)N[C@@H](CC(C)(C)C)C(=O)N1CCC[C@H]1C(=O)N[C@@H](CCC(=O)O)C(=O)N[C@H](CCCCNC(=O)CCc1cn(CCOCCOCCOCCOCCOCCOCCOCCOCCOCCOCCNC(=O)CCOCC(COCCC(=O)NCCOCCOCCOCCOCCOCCOCCOCCOCCOCCOCCn3cc(CCC(=O)NCCCC[C@H]4NC(=O)[C@H](CCC(=O)O)NC(=O)[C@@H]5CCCN5C(=O)[C@H](CC(C)(C)C)NC(=O)[C@@H](NC(C)=O)CSCCC(=O)N5CN6CN(C5)C(=O)CCSC[C@H](NC(=O)[C@H](Cc5ccc(O)cc5)NC(=O)[C@@H]5CCCN5C4=O)C(=O)N[C@@H](Cc4ccccc4)C(=O)N[C@@H](C)C(=O)N[C@@H](CC(=O)O)C(=O)N4CCC[C@H]4C(=O)N[C@@H](Cc4ccc(O)cc4)C(=O)N[C@@H](CCCC)C(=O)N[C@H](C(=O)N[C@@H](C)C(N)=O)CSCCC6=O)nn3)(COCCC(=O)NCCOCCOCCOCCOCCOCCOCCOCCOCCOCCOCCn3cc(CCC(=O)NCCCC[C@H]4NC(=O)[C@H](CCC(=O)O)NC(=O)[C@@H]5CCCN5C(=O)[C@H](CC(C)(C)C)NC(=O)[C@@H](NC(C)=O)CSCCC(=O)N5CN6CN(C5)C(=O)CCSC[C@H](NC(=O)[C@H](Cc5ccc(O)cc5)NC(=O)[C@@H]5CCCN5C4=O)C(=O)N[C@@H](Cc4ccccc4)C(=O)N[C@@H](C)C(=O)N[C@@H](CC(=O)O)C(=O)N4CCC[C@H]4C(=O)N[C@@H](Cc4ccc(O)cc4)C(=O)N[C@@H](CCCC)C(=O)N[C@H](C(=O)N[C@@H](C)C(N)=O)CSCCC6=O)nn3)COCCC(=O)NCCOCCOCCOCCOCCOCCOCCOCCOCCOCCOCCn3cc(CCC(=O)NCCC(=O)N[C@H]4CSCCC(=O)N5CN6CN(C5)C(=O)CCSC[C@H](NC(=O)[C@@H](CC(=O)O)NC(=O)[C@H](Cc5cccc7ccccc57)NC(=O)[C@@H]5CCCN5C4=O)C(=O)N[C@@H](CCSC)C(=O)N[C@@H](CCCCNC(=N)N)C(=O)N[C@@H](CC(=O)O)C(=O)N[C@@H](Cc4c[nH]c5ccccc45)C(=O)N[C@@H](CO)C(=O)N[C@@H]([C@@H](C)O)C(=O)N4CCC[C@H]4C(=O)N4C[C@H](O)C[C@H]4C(=O)N[C@@H](Cc4c[nH]c5ccccc45)C(=O)N[C@H](C(N)=O)CSCCC6=O)nn3)nn1)C(=O)N1CCC[C@H]1C(=O)N[C@@H](Cc1ccc(O)cc1)C(=O)N2 [BCY11022]
EC50: 0.2 nM
Emax [1]: 66 fold induction over background
